Holding throughout (assay type): cell-based
Assay [1] has as its system MDA-MB-231. As to the kind of experiment: Cell growth inhibition, CellTiter-Glo Luminescent Cell Viability Assay, MDA-MB-231. To be noted: Homo sapiens, MDA-MB-231, 96 h, MDA-MB-231 cells, 4 days incubation. Summed up:
(§1)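 Cells were seeded at 2,000/well with serially diluted compound and grown 4 days at 37° C, 5% CO2. Viability was read by CellTiter-Glo luminescence after 10-20 min at room temperature, and IC50 was fitted from the dose-response.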
On the technique in general: Cellular ATP, detected with luciferase, serves as a proxy for viable cell number.

In assay [2] the test system is RS4; 11. As to the kind of experiment: Cell growth inhibition, CellTiter-Glo Luminescent Cell Viability Assay, RS4;11. Particulars: Homo sapiens, 96 h, RS4;11 cells, 4 days incubation. The method, then:
Cell growth inhibitory activity of representative Compounds of the Disclosure was determined in various cell lines using CellTiter-Glo® Luminescent Cell Viability Assay. Cells were seeded in 384-well white opaque cell culture plates at a density of 2,000 cells/well with serially diluted compounds and incubated at 37° C. in an atmosphere of 95% air and 5% CO2 for 4 days. Cell viability was determined using the CellTiter-Glo® Luminescent Cell Viability Assay Kit (Promega, Madison, Wis.) according to the manufacture's instruction. Briefly, a volume of CellTiter-Glo® Reagent equal to the volume of cell culture medium was added to each well, and then the plates were incubated at room temperature for 10-20 minutes. The luminescent signal was measured using a Tecan Infinite M1000 multimode microplate reader (Tecan, Morrisville, N.C.). The half maximal inhibitory concentration (IC50) was calculated using the GraphPad Prism 5 software (GraphPad Software, La Jolla, Calif.).

In assay [3] the test system is MOLM-13. As to the kind of experiment: Cell growth inhibition, CellTiter-Glo Luminescent Cell Viability Assay, MOLM-13. To be noted: Homo sapiens, MOLM-13, 96 h, MOLM-13 cells, 4 days incubation. Summed up: as §1

Usually IC50 stands for the concentration that gives 50% inhibition. A higher IC50 goes with lower potency. On to `Cc1c(C#Cc2cnn(CCCCNc3cccc4c3CN(C3CCC(=O)NC3=O)C4=O)c2)sc2c1C(c1ccc(Cl)cc1)=N[C@@H](C)c1nnc(C)n1-2` (stereo partly drawn) [compound 145, 3-(4-((4-(4-(((S)-4-(4-chlorophenyl)-3,6,9-trimethyl-6H-thieno[3,2-f][1,2,4]triazolo[4,3-a][1,4]diazepin-2-yl)ethynyl)-1H-pyrazol-1-yl)butyl)amino)-1-oxoisoindolin-2-yl)piperidine-2,6-dione], for which the concentration for half-maximal inhibition (IC50) in assay [1] is 0.39 nM; in assay [2] it was 0.13 nM.
The corresponding values for `Cc1c(C#Cc2cnn(CCCCOc3cccc4c3CN(C3CCC(=O)NC3=O)C4=O)c2)sc2c1C(c1ccc(Cl)cc1)=N[C@@H](C)c1nnc(C)n1-2` (stereo partly drawn) [compound 147, 3-(4-(4-(4-(((S)-4-(4-chlorophenyl)-3,6,9-trimethyl-6H-thieno[3,2-f][1,2,4]triazolo[4,3-a][1,4]diazepin-2-yl)ethynyl)-1H-pyrazol-1-yl)butoxy)-1-oxoisoindolin-2-yl)piperidine-2,6-dione] are 0.08 nM and 0.05 nM.
The corresponding values for `Cc1c(C#Cc2cnn(CCCC#Cc3cccc4c3CN(C3CCC(C)NC3=O)C4=O)c2)sc2c1C(c1ccc(Cl)cc1)=NCc1nnc(C)n1-2` (stereo not drawn) [compound 161, 4-(5-(4-((4-(4-chlorophenyl)-3,9-dimethyl-6H-thieno[3,2-f][1,2,4]triazolo[4,3-a][1,4]diazepin-2-yl)ethynyl)-1H-pyrazol-1-yl)pent-1-yn-1-yl)-2-(6-methyl-2-oxopiperidin-3-yl)isoindolin-1-one] are 71.8 nM and 20.4 nM.
The corresponding values for `Cc1c(C#Cc2cnn(CCCC#Cc3cccc4c3CN(C3CCC(C)NC3=O)C4=O)c2)sc2c1C(c1ccc(Cl)cc1)=N[C@@H](C)c1nnc(C)n1-2` (stereo partly drawn) [compound 162, 4-(5-(4-(((S)-4-(4-chlorophenyl)-3,6,9-trimethyl-6H-thieno[3,2-f][1,2,4]triazolo[4,3-a][1,4]diazepin-2-yl)ethynyl)-1H-pyrazol-1-yl)pent-1-yn-1-yl)-2-(6-methyl-2-oxopiperidin-3-yl)isoindolin-1-one] are 22 nM and 2.4 nM.
Take `Cc1c(C#Cc2cnn(CCCC#Cc3cccc4c3C(=O)N(C3CCC(=O)NC3)C4=O)c2)sc2c1C(c1ccc(Cl)cc1)=NCc1nnc(C)n1-2` (stereo not drawn) [compound 163, 4-(5-(4-((4-(4-chlorophenyl)-3,9-dimethyl-6H-thieno[3,2-f][1,2,4]triazolo[4,3-a][1,4]diazepin-2-yl)ethynyl)-1H-pyrazol-1-yl)pent-1-yn-yl)-2-(6-oxopiperidin-3-yl)isoindoline-1,3-dione]: the IC50 in assay [1] is 284 nM; in assay [2], 216 nM.
With `Cc1c(C#Cc2cnn(CCCN3CCC(Nc4cccc5c4CN(C4CCC(=O)NC4=O)C5=O)CC3)c2)sc2c1C(c1ccc(Cl)cc1)=N[C@@H](CC(=O)Nc1ccc(O)cc1)c1nnc(C)n1-2` (stereo partly drawn) [compound 193, 2-((6S)-4-(4-chlorophenyl)-2-((1-(3-(4-((2-(2,6-dioxopiperidin-3-yl)-1-oxoisoindolin-4-yl)amino)piperidin-1-yl)propyl)-1H-pyrazol-4-yl)ethynyl)-3,9-dimethyl-6H-thieno[3,2-f][1,2,4]triazolo[4,3-a][1,4]diazepin-6-yl)-N-(4-hydroxyphenyl)acetamide], the IC50 in assay [3] was 0.03 nM; in assay [1] it was 0.06 nM.
In the same order, the values of `Cc1c(C#Cc2cnn(CCOCCOCCOCC#Cc3cccc4c3CN(C3CCC(=O)NC3=O)C4=O)c2)sc2c1C(c1ccc(Cl)cc1)=N[C@@H](CC(=O)OC(C)(C)C)c1nnc(C)n1-2` (stereo partly drawn) [compound 194, tert-butyl 2-((6S)-4-(4-chlorophenyl)-2-((1-(2-(2-(2-((3-(2-(2,6-dioxopiperidin-3-yl)-1-oxoisoindolin-4-yl)prop-2-yn-1-yl)oxy)ethoxy)ethoxy)ethyl)-1H-pyrazol-4-yl)ethynyl)-3,9-dimethyl-6H-thieno[3,2-f][1,2,4]triazolo[4,3-a][1,4]diazepin-6-yl)acetate] are 0.8 nM and 0.7 nM.
In the case of `Cc1c(C#Cc2cnn(CCOCCOCCOCC#Cc3cccc4c3CN(C3CCC(=O)NC3=O)C4=O)c2)sc2c1C(c1ccc(Cl)cc1)=N[C@@H](CC(N)=O)c1nnc(C)n1-2` (stereo partly drawn) [compound 195, 2-((6S)-4-(4-chlorophenyl)-2-((1-(2-(2-(2-((3-(2-(2,6-dioxopiperidin-3-yl)-1-oxoisoindolin-4-yl)prop-2-yn-1-yl)oxy)ethoxy)ethoxy)ethyl)-1H-pyrazol-4-yl)ethynyl)-3,9-dimethyl-6H-thieno[3,2-f][1,2,4]triazolo[4,3-a][1,4]diazepin-6-yl)acetamide], the values for the concentration for half-maximal inhibition (IC50) in assay [3] and in assay [1] were 2.4 nM and 5.4 nM, respectively.
The corresponding values for `Cc1c(C#Cc2cnn(CCOCCOCCOCC#Cc3cccc4c3CN(C3CCC(=O)NC3=O)C4=O)c2)sc2c1C(c1ccc(Cl)cc1)=N[C@@H](C)c1nnc(C)n1-2` (stereo partly drawn) [compound 196] are 0.2 nM and 0.4 nM.
The corresponding values for `Cc1c(C#Cc2cnn(CCOCCOCCOCC#Cc3cccc4c3CN(C3CCC(=O)NC3=O)C4=O)c2)sc2c1C(c1ccc(Cl)cc1)=N[C@@H](CC(=O)N1CCN(C)CC1)c1nnc(C)n1-2` (stereo partly drawn) [compound 197, 3-(4-(3-(2-(2-(2-(4-(((S)-4-(4-chlorophenyl)-3,9-dimethyl-6-(2-(4-methylpiperazin-1-yl)-2-oxoethyl)-6H-thieno[3,2-f][1,2,4]triazolo[4,3-a][1,4]diazepin-2-yl)ethynyl)-1H-pyrazol-1-yl)ethoxy)ethoxy)ethoxy)prop-1-yn-1-yl)-1-oxoisoindolin-2-yl)piperidine-2,6-dione] are 1.1 nM and 2.5 nM.
In the same order, the values of `Cc1ncsc1-c1ccc([C@H](C)NC(=O)[C@@H]2C[C@@H](O)CN2C(=O)[C@@H](NC(=O)COCCOCCOCCOCCn2cc(C#Cc3sc4c(c3C)C(c3ccc(Cl)cc3)=N[C@@H](C)c3nnc(C)n3-4)cn2)C(C)(C)C)cc1` [compound 198, (2S,4R)-1-((S)-2-(tert-butyl)-17-(4-(((S)-4-(4-chlorophenyl)-3,6,9-trimethyl-6H-thieno[3,2-f][1,2,4]triazolo[4,3-a][1,4]diazepin-2-yl)ethynyl)-1H-pyrazol-1-yl)-4-oxo-6,9,12,15-tetraoxa-3-azaheptadecanoyl)-4-hydroxy-N-((S)-1-(4-(4-methylthiazol-5-yl)phenyl)ethyl)pyrrolidine-2-carboxamide] are 0.24 ± 0.06 nM and 1.5 nM.
`Cc1ncsc1-c1ccc([C@H](C)NC(=O)[C@@H]2C[C@@H](O)CN2C(=O)[C@@H](NC(=O)COCCCn2cc(C#Cc3sc4c(c3C)C(c3ccc(Cl)cc3)=N[C@@H](C)c3nnc(C)n3-4)cn2)C(C)(C)C)cc1` [compound 199, (2S,4R)-1-((S)-2-(2-(3-(4-(((S)-4-(4-chlorophenyl)-3,6,9-trimethyl-6H-thieno[3,2-f][1,2,4]triazolo[4,3-a][1,4]diazepin-2-yl)ethynyl)-1H-pyrazol-1-yl)propoxy)acetamido)-3,3-dimethylbutanoyl)-4-hydroxy-N-((S)-1-(4-(4-methylthiazol-5-yl)phenyl)ethyl)pyrrolidine-2-carboxamide]: the concentration for half-maximal inhibition (IC50) was found to be 0.5 ± 0.06 nM in assay [3] and 6.7 nM in assay [1].
The corresponding values for `Cc1ncsc1-c1ccc([C@H](C)NC(=O)[C@@H]2C[C@@H](O)CN2C(=O)[C@@H](NC(=O)COCCOCCOCCn2cc(C#Cc3sc4c(c3C)C(c3ccc(Cl)cc3)=N[C@@H](C)c3nnc(C)n3-4)cn2)C(C)(C)C)cc1` [compound 200, (2S,4R)-1-((S)-2-(tert-butyl)-14-(4-(((S)-4-(4-chlorophenyl)-3,6,9-trimethyl-6H-thieno[3,2-f][1,2,4]triazolo[4,3-a][1,4]diazepin-2-yl)ethynyl)-1H-pyrazol-1-yl)-4-oxo-6,9,12-trioxa-3-azatetradecanoyl)-4-hydroxy-N-((S)-1-(4-(4-methylthiazol-5-yl)phenyl)ethyl)pyrrolidine-2-carboxamide] are 0.34 ± 0.03 nM and 3.1 nM.
In the same order, the values of `Cc1ncsc1-c1ccc([C@H](C)NC(=O)[C@@H]2C[C@@H](O)CN2C(=O)[C@@H](NC(=O)COCCOCCn2cc(C#Cc3sc4c(c3C)C(c3ccc(Cl)cc3)=N[C@@H](C)c3nnc(C)n3-4)cn2)C(C)(C)C)cc1` [compound 201, (2S,4R)-1-((S)-2-(2-(2-(2-(4-(((S)-4-(4-chlorophenyl)-3,6,9-trimethyl-6H-thieno[3,2-f][1,2,4]triazolo[4,3-a][1,4]diazepin-2-yl)ethynyl)-1H-pyrazol-1-yl)ethoxy)ethoxy)acetamido)-3,3-dimethylbutanoyl)-4-hydroxy-N-((S)-1-(4-(4-methylthiazol-5-yl)phenyl)ethyl)pyrrolidine-2-carboxamide] are 2.1 ± 0.32 nM and 24.9 nM.
The corresponding values for `Cc1ncsc1-c1ccc([C@H](C)NC(=O)[C@@H]2C[C@@](C)(O)CN2C(=O)[C@@H](NC(=O)COCCCn2cc(C#Cc3sc4c(c3C)C(c3ccc(Cl)cc3)=N[C@@H](C)c3nnc(C)n3-4)cn2)C(C)(C)C)cc1` [compound 205, (2S,4R)-1-((S)-2-(2-(3-(4-(((S)-4-(4-chlorophenyl)-3,6,9-trimethyl-6H-thieno[3,2-f][1,2,4]triazolo[4,3-a][1,4]diazepin-2-yl)ethynyl)-1H-pyrazol-1-yl)propoxy)acetamido)-3,3-dimethylbutanoyl)-4-hydroxy-4-methyl-N-((S)-1-(4-(4-methylthiazol-5-yl)phenyl)ethyl)pyrrolidine-2-carboxamide] are 42.3 nM and 93 nM.

These data come from patent US10975093B2, “Fused 1,4-diazepines as BET protein degraders” (THE REGENTS OF THE UNIVERSITY OF MICHIGAN, priority 2016, dated 2021).
